One may read the Cmax as the maximum level reached in the sampled fluid or tissue. The term AUC(0-t) denotes exposure summed from dosing to a finite time, without extrapolation to infinity. Low readings indicate less exposure, high ones more exposure. The half-life is how long it takes for the measured level to halve.

The text below walks through data of article PMC5500904 (Clinical cancer research : an official journal of the …, 2016).

For data set [1], the system named is patients with advanced solid tumors. Conditions: in vivo.
A further data set in a line: clinical. Conditions: human, in vivo; for Cmax: 150 mg; for AUC(0-t): AUC0–last.
For data set [2] the following is noted: in vivo.
The next data set addresses IGF1R (Homo sapiens, UniProt P08069). The experiment in a line: Phosphorylation of IGF1R in PBMCs. The format is in vivo.
The subject of a further data set is adrenocortical carcinoma. Conditions: cited from earlier work.
Data set [3] deals with patients with solid tumors. Conditions: cited from earlier work; for antitumor activity as monotherapy: single agent, solid tumors.
For data set [4] the following is noted: cited from earlier work.
The next data set concerns metastatic CRC. Conditions: combined with everolimus; cited from earlier work.
For another data set, the system named is advanced NSCLC. Conditions: cited from earlier work.

Read-outs that look alike come from different tables or passages of the source. A value given as a limit tells only on which side of the number the result lay.

Chain of IGF1R (P08069 31-1367): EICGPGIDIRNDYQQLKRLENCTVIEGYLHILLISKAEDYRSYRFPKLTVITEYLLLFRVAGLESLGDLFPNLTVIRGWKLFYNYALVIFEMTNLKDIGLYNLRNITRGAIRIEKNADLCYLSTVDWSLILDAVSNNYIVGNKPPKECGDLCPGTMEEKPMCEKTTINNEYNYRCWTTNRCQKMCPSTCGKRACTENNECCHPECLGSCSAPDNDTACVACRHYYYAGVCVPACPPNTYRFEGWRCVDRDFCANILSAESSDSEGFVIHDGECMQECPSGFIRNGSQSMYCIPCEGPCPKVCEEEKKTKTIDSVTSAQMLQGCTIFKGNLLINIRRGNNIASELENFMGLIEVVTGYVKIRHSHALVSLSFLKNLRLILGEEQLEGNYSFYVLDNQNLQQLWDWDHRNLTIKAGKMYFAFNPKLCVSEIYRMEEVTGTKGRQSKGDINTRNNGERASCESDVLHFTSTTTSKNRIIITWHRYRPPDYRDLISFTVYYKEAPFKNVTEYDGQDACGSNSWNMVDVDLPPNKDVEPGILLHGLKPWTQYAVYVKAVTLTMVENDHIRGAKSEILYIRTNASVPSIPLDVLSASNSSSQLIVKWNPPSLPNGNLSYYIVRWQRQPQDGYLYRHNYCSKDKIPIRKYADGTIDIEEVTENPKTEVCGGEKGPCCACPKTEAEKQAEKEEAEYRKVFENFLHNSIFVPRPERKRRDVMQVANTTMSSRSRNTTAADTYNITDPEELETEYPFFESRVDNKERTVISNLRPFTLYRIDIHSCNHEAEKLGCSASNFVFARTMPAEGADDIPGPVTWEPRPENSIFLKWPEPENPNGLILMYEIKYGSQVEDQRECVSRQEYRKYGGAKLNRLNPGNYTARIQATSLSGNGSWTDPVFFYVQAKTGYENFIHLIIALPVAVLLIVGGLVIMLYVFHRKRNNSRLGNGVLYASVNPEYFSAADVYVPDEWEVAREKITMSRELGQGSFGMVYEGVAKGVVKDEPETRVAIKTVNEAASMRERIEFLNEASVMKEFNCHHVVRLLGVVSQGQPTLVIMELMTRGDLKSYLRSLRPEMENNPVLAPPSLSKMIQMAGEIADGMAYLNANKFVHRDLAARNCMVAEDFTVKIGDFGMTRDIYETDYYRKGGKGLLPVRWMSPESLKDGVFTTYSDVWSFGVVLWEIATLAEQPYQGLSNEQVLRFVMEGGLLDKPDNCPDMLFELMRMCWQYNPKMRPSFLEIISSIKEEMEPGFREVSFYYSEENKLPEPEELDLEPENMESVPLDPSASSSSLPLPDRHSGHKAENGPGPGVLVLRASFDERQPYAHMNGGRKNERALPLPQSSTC

In the case of `C#Cc1cccc(Nc2ncnc3cc(OCCOC)c(OCCOC)cc23)c1` [erlotinib, Erlotinib, reference compound], in data set [1] (human), the “Erlotinib-related AE: diarrhea” value is given as 26%, the “Erlotinib-related AE: drug eruption” value is 74%, the “Erlotinib-related AE: dry skin” value was determined as 26% and the “Erlotinib-related AE: pruritus” value is listed as 26%. Moreover, in data set [1] (human), the “Erlotinib-related AEs” value is reported as 84 % of patients and the “patients discontinuing for an event related only to the named treatment” value was found to be 3 patients. For the same compound, in “clinical”, the peak level (Cmax) was 1280 ng/mL, the AUC(0-t) came out at 21100 ng·h/mL and the Tmax is 4.1 h. The Tmax in data set [2] (human) was 4.1 (1.9–8.4) h.

As to `C[C@]1(O)C[C@@H](c2nc(-c3ccc4ccc(-c5ccccc5)nc4c3)c3c(N)nccn32)C1` [linsitinib, Linsitinib], in data set [1] (human), the “Linsitinib-related hyperglycemia at grade 2” value amounted to 2, the “Linsitinib-related hyperglycemia at grade 3” value was determined as 3 cases, the “Treatment-related SAEs” value is on record as 10 of 40 (25%) patients (%) and the “linsitinib-related AE: fatigue” value stood at 12%. In addition, in data set [1] (human), the “linsitinib-related AE: nausea” value was 11%, the “linsitinib-related AE: prolonged QTc interval” value came to 8%, the “linsitinib-related AE: vomiting” value was determined as 8% and the “patients discontinuing for an event related only to the named treatment” value was 1 patients. Further, the thrombocytopenia and neutropenia entry in data set [1] is recorded as “not observed”. In addition, the “IGF1R phosphorylation in PBMCs” value at IGF1R (2 to 24 hours after the first dose, 7 cases, S1–S3) is “substantially inhibited”. Also, the “IGF1R phosphorylation in PBMCs” value at IGF1R (later time points, intermittent S1 schedule) was “fluctuating receptor inhibition”. At IGF1R (later time points, ≥300 mg linsitinib daily in S2 and S3), the “IGF1R phosphorylation in PBMCs” value was “persisting receptor inhibition”. Also, the “overall survival versus placebo arm” value with adrenocortical carcinoma is “no difference in overall survival”. Further, the “patients with durable PR” value with adrenocortical carcinoma (linsitinib arm) is reported as 3 of 90. In data set [3] (another study, 600 mg dose, ref unpublished data), the “QTc prolongation versus peak concentrations of linsitinib” value is reported as “associated with peak concentrations”. Further, in data set [3], the half-life was 5 h; the “antitumor activity as monotherapy” value was “partial responses (PR) in melanoma and adrenocortical carcinoma”. In addition, the “monotherapy MTD” value in [3] (continuous once daily dosing) was 400 mg. In data set [3] (intermittent dosing), the “monotherapy MTD” value was 600 mg. Also, the “antitumor activity as monotherapy” value in [3] (listed as Linsitinib) is “induced partial responses in adrenocortical carcinoma and melanoma”. For the same compound, the “monotherapy RP2D” value in data set [3] (twice daily, continuous) is 150 mg. Also, in “clinical”, the concentration at 24 h is not above 400 ng/mL, the Cmax is 2580 ng/mL, the AUC(0-t) was 17900 ng·h/mL and the Tmax worked out at 3 h. In addition, the “plasma level associated with preclinical activity” value in [4] is on record as ~ 1 μmol/L. In [2], the “Cmax and AUC from time zero to infinity versus dose” value is recorded as “increased in a dose-proportional manner”; the “drug–drug interaction (pharmacokinetic)” value is recorded as “no significant drug–drug interaction effect”. Also, the clinical activity entry with metastatic CRC is reported as “no evidence of clinical activity”.

As to “R1507: IGF1R antibody, evaluated with erlotinib in NSCLC”, in the data set on advanced NSCLC (R1507 with erlotinib, patients with KRAS-mutant tumors), the “12-week progression-free survival rate” value was 36%. Also, the “progression-free or overall survival versus erlotinib alone” value in the data set on advanced NSCLC (R1507 with erlotinib, unselected patients) was “no progression-free survival or overall survival advantage”. The tolerability entry with advanced NSCLC (in vivo) is on record as “tolerable”.
